Values quoted from earlier work as cited in patent US20230025663A1, “NANOFORMULATION WITH DIVERSE FUNCTIONAL MOLECULES FROM TURMERIC AND PROCESS FOR PREPARATION OF THE SAME” (ZEROHARM SCIENCES PRIVATE LIMITED, priority 2021, published 2023).

Conditions: in vivo

**Q.** For `COc1cc(/C=C/C(=O)CC(=O)/C=C/c2ccc(O)c(OC)c2)ccc1O` [curcumin], which bioavailability is on record?
**A.** ~1%
